Measured values taken from patent US4228292A, “N-Substituted benzothiazolines and benzoxazolines and their use as herbicides and plant growth regulants” (Monsanto Company, priority 1978, dated 1980).

Assays:
[1] = test system: Crabgrass; experiment: post-emergent herbicidal test; format: in vivo; details: T; further: ranges in brackets are in %
Procedure: (§1) The post-emergent tests were conducted as follows:
(§2) The herbicidal active ingredients are applied in spray form to two or three-week old specimens of various plant species. The spray, a solution or wettable powder suspension containing the appropriate rate of herbicidal active ingredient to give the desired test rate and a surfactant, is applied to the plants. The treated plants are placed in a greenhouse and approximately two or four weeks later the effects are observed and recorded. The results are shown in Tables IX and X in which the post-emergent herbicidal rating code is as follows: […]

[2] = test system: Hemp Sesbania; experiment: post-emergent herbicidal test; format: in vivo; details: R; further: ranges in brackets are in %
Procedure: as §1, §2

[3] = test system: Panicum Spp; experiment: post-emergent herbicidal test; format: in vivo; details: S; further: ranges in brackets are in %
Procedure: as §1, §2

[4] = test system: Rice; experiment: post-emergent herbicidal test; format: in vivo; details: O; further: ranges in brackets are in %
Procedure: as §1, §2

[5] = test system: Sorghum; experiment: post-emergent herbicidal test; format: in vivo; details: P; further: ranges in brackets are in %
Procedure: as §1, §2

[6] = test system: Soybean; experiment: post-emergent herbicidal test; format: in vivo; details: L; further: ranges in brackets are in %
Procedure: as §1, §2

[7] = test system: Sugar Beet; experiment: post-emergent herbicidal test; format: in vivo; details: M; further: ranges in brackets are in %
Procedure: as §1, §2

[8] = test system: Wheat; experiment: post-emergent herbicidal test; format: in vivo; details: N; further: ranges in brackets are in %
Procedure: as §1, §2

[9] = test system: Wild Buckwheat; experiment: post-emergent herbicidal test; format: in vivo; details: Q; further: ranges in brackets are in %
Procedure: as §1, §2

[10] = test system: soybean plants; experiment: plant growth regulating activity on soybean plants; format: in vivo, variety Williams; details: 2.8 kg/h
Procedure: A number of soybean plants, variety Williams, were grown from seeds in plastic pots in the greenhouse for a period of one week at which time the plants are thinned to one plant per pot. When the second trifoliate leaf (three weeks) was fully expanded, the plants were treated with a solution of the active ingredient in acetone and water. Aqueous Tween 20 was used as a surfactant.
When the fifth trifoliate leaf (four to five weeks) was fully expanded, the treated plants were compared with the non-treated control plants and the observations recorded.

For COC(=N)Cn1c(=O)sc2ccc(Cl)cc21 [Compound 27], the post-emergent herbicidal rating ([1]; 0.28 kg/h, 2 WAT) was 0 (0-24), the post-emergent herbicidal rating ([1]; 1.12 kg/h, 4 WAT) was 0 (0-24) and the post-emergent herbicidal rating ([1]; 5.6 kg/h, 4 WAT) was 0 (0-24). The post-emergent herbicidal rating ([2]; 0.28 kg/h, 2 WAT) was 0 (0-24), the post-emergent herbicidal rating ([2]; 1.12 kg/h, 4 WAT) was 2 (50-74) and the post-emergent herbicidal rating ([2]; 5.6 kg/h, 4 WAT) was 4 (100). The post-emergent herbicidal rating ([3]; 0.28 kg/h, 2 WAT) was 0 (0-24), the post-emergent herbicidal rating ([3]; 1.12 kg/h, 4 WAT) was 0 (0-24) and the post-emergent herbicidal rating ([3]; 5.6 kg/h, 4 WAT) was 0 (0-24). For the same molecule, the post-emergent herbicidal rating ([4]; 0.28 kg/h, 2 WAT) was 0 (0-24), the post-emergent herbicidal rating ([4]; 1.12 kg/h, 4 WAT) was 0 (0-24) and the post-emergent herbicidal rating ([4]; 5.6 kg/h, 4 WAT) was 0 (0-24). The post-emergent herbicidal rating ([5]; 0.28 kg/h, 2 WAT) was 0 (0-24), the post-emergent herbicidal rating ([5]; 1.12 kg/h, 4 WAT) was 0 (0-24) and the post-emergent herbicidal rating ([5]; 5.6 kg/h, 4 WAT) was 0 (0-24). For the same molecule, the post-emergent herbicidal rating ([6]; 0.28 kg/h, 2 WAT) was 1 (25-49), the post-emergent herbicidal rating ([6]; 1.12 kg/h, 4 WAT) was 2 (50-74) and the post-emergent herbicidal rating ([6]; 5.6 kg/h, 4 WAT) was 3 (75-99). For the same molecule, the post-emergent herbicidal rating ([7]; 0.28 kg/h, 2 WAT) was 1 (25-49), the post-emergent herbicidal rating ([7]; 1.12 kg/h, 4 WAT) was 3 (75-99) and the post-emergent herbicidal rating ([7]; 5.6 kg/h, 4 WAT) was 3 (75-99). For the same molecule, the post-emergent herbicidal rating ([8]; 0.28 kg/h, 2 WAT) was 0 (0-24), the post-emergent herbicidal rating ([8]; 1.12 kg/h, 4 WAT) was 0 (0-24) and the post-emergent herbicidal rating ([8]; 5.6 kg/h, 4 WAT) was 1 (25-49). The post-emergent herbicidal rating ([9]; 0.28 kg/h, 2 WAT) was 0 (0-24), the post-emergent herbicidal rating ([9]; 1.12 kg/h, 4 WAT) was 3 (75-99) and the post-emergent herbicidal rating ([9]; 5.6 kg/h, 4 WAT) was 4 (100). For the same molecule, the “plant growth regulant observations” value [10] was “Plants died”.
